The test system of this experiment is NL43 HIV-1 laboratory strain. The experiment can be described thus: NL43 HIV-1 laboratory strain replication assay with HelaCD4+β-Gal indicator cells (P4 cells), CPRG development, CalcuSyn analysis. Type of experiment: cell-based. The method, then:
Synergistic interactions between quinoline compounds (BA011FZ041) and either RT (zidovudine and nevirapine) or other integrase inhibitors (L-731,988) were investigated using a NL43 HIV-1 laboratory strain replication assay. Virus infectivity in the presence of inhibitors was monitored with HelaCD4+β-Gal indicator cells (P4 cells). Inhibition by combination of BA011FZ041 and other inhibitors was evaluated at three fixed molar BA011FZ041/Inhibitor ratios: 1:1, 1:2, and 2:1. Three independent experiments with triplicate data points were performed for each ratio. Interactions were calculated by the multiple drug effect equation of Chou and Talalay (Chou and Talalay, 1983; and Chou and Talalay, 1984) based on the median effect principle, using CalcuSyn® software (Biosoft, UK).
On the day prior to the test, 5,000 HeLaP4 cells per well are seeded in 100 μl of 10% FBS DMEM supplemented with […] penicillin, 100 μg/ml streptomycin and 0.5 mg/ml geniticin (G418). Otherwise, in the morning of the test, 10,000 HeLaP4 cells are seeded per well in 100 μl of 10% FBS DMEM supplemented with […] penicillin, 100 μg/ml streptomycin and 0.5 mg/ml geniticin (G418).
One plate of cells is used for the 2 drugs alone+half a plate per ratio tested is used for development with CPRG and, as necessary, an equivalent number of plates for the MTT toxicity test.
Several drug-drug ratios are tested: 1:1, 1:2, 2:1, 1:4 and 4:1.
Ratios are expressed relative to IC50 values. For the 1:1 ratio, the IC50 concentration for (BA011FZ041+drug X) is the IC50 concentration for BA011FZ041+the IC50 concentration for drug X.
For the 1:2 ratio, the IC50 concentration for (BA011FZ041+drug X) is the IC50 concentration for BA011FZ041+twice the IC50 concentration for drug X.
The form of BA011FZ041 tested is the sodium carbonate salt.
Further dilutions are also performed using PBS and are then distributed at 5 μl per well. • For DMSO: the molecules are resuspended at a concentration 200-fold higher than that finally required in the well so that DMSO be non toxic for the HeLa P4 cells. The quantity of DMSO is constant for each drug concentration tested.
In practice, initial dilutions are performed using DMSO, with these solutions then being rediluted fivefold in PBS or culture medium so as to obtain concentrations 40-fold higher than those finally required in the well. The solutions are then distributed at 5 μl per well.
Prior to infection, the wells are filled up to a final volume of 200 μl with 40 or 45 μl of medium.
NL4.3 viral supernatant has been produced by CaCl2 transfection of 293T cells. The HeLa P4 cells are infected with NL 4.3 HIV virus, with about 1 to 2 ng of P24 per well.
Depending on the P24 content of the virus used, a virus solution+10% FBS DMEM supplemented with […] penicillin, 100 μg/ml streptomycin and 0.5 mg/ml geniticin (G418) is prepared and is then distributed at 50 μl per well.
The plates are incubated at 37° C., 5% CO2, for 60 hours.
The CPRG (chlorophenol red-β-D-galactopyranoside) test is a […] test enabling measurement of the quantity of β-galactosidase produced during viral infection (the β-gal gene is under the control of the TAR element which in turn is controlled by the viral. TAT).
The supernatant is removed from the plates of HelaP4 cells. 100 μl of CPRG lysis buffer is added per well (for 110 wells: Na2HPO4 (0.5M) 1687 μL, NaH2PO4 (1M) 440 μL, KCl (1M) 110 μL, MgSO4 (1M) 220 μL, EDTA (0.5M) 55 μL, β-mercaptoethanol 39 μL, NP40 14 μL, water 8617 μL).
The cells are incubated for 10 minutes at 37° C. in order to obtain full cell lysis. The lysed wells are homogenized and 50 μl of each lysate is transferred into the corresponding well of another plate containing 100 μl reaction buffer (for 110 wells: pH 7.4 phosphate buffer (1M) 880 μL, MgCl2 99 μL, β-mercaptoethanol 77 μL, water 8140 μL, CPRG (250 mg of CPRG dissolved in 9.1 ml of Millipore water+455 μl pH 7.4 sodium phosphate buffer) 1833 μL).

As usually defined, the IC50 is the concentration that inhibits the measured activity by half.

Like-named read-outs stand apart in the source and are kept apart here.

Regarding `O=C(O)C(=O)CC(=O)c1cccn1Cc1ccc(F)cc1` [L-731,988, 4-[1-(4-fluorobenzyl)pyrrole-2-yl]-2,4-diketobutanoic acid], the IC50 (Human immunodeficiency virus 1, NL43, Table 10, Ratio 1:1 series, drug alone, Mean, read-out: IC50 L-731,988, drug alone) is 1500 nM; the IC50 (Human immunodeficiency virus 1, NL43, Table 10, Ratio 1:2 series, drug alone, Mean, read-out: IC50 L-731,988, drug alone) is 1500 nM; the IC50 (Human immunodeficiency virus 1, NL43, Table 10, Ratio 2:1 series, drug alone, Mean, read-out: IC50 L-731,988, drug alone) was 1500 nM; the IC50 (Human immunodeficiency virus 1, NL43, in the mix with FZ41, Ratio 1:1, Mean, read-out: IC50 L-731,988, in the mix) is 300 nM; the IC50 (Human immunodeficiency virus 1, NL43, in the mix with FZ41, Ratio 1:2, Mean, read-out: IC50 L-731,988, in the mix) was 500 nM; the IC50 (Human immunodeficiency virus 1, NL43, in the mix with FZ41, Ratio 2:1, Mean, read-out: IC50 L-731,988, in the mix) was 200 nM.

For the compound `Cc1ccnc2c1NC(=O)c1cccnc1N2C1CC1` [Nev], the IC50 reads like this: (Human immunodeficiency virus 1, NL43, Table 6, Ratio 1:1 series, drug alone, Mean, read-out: IC50 Nev, drug alone) 39 nM; (Human immunodeficiency virus 1, NL43, Table 6, Ratio 1:2 series, drug alone, Mean, read-out: IC50 Nev, drug alone) 41 nM; (Human immunodeficiency virus 1, NL43, Table 6, Ratio 2:1 series, drug alone, Mean, read-out: IC50 Nev, drug alone) 39 nM; (Human immunodeficiency virus 1, NL43, in the mix with FZ41, Ratio 1:1, Mean, read-out: IC50 Nev, in the mix) 11 nM; (Human immunodeficiency virus 1, NL43, in the mix with FZ41, Ratio 1:2, Mean, read-out: IC50 Nev, in the mix) 18 nM; (Human immunodeficiency virus 1, NL43, in the mix with FZ41, Ratio 2:1, Mean, read-out: IC50 Nev, in the mix) 6.3 nM.

As for `Cc1cn([C@H]2C[C@H](N=[N+]=[N-])[C@@H](CO)O2)c(=O)[nH]c1=O` [ZVD, 3′-azido-3′-deoxythymidine], the IC50 was 29 nM (Human immunodeficiency virus 1, NL43, Table 8, Ratio 1:1 series, drug alone, Mean, read-out: IC50 ZVD, drug alone); 46 nM (Human immunodeficiency virus 1, NL43, Table 8, Ratio 1:2 series, drug alone, Mean, read-out: IC50 ZVD, drug alone); 44 nM (Human immunodeficiency virus 1, NL43, Table 8, Ratio 2:1 series, drug alone, Mean, read-out: IC50 ZVD, drug alone); 16 nM (Human immunodeficiency virus 1, NL43, in the mix with FZ41, Ratio 1:1, Mean, read-out: IC50 ZVD, in the mix); 28 nM (Human immunodeficiency virus 1, NL43, in the mix with FZ41, Ratio 1:2, Mean, read-out: IC50 ZVD, in the mix); 11 nM (Human immunodeficiency virus 1, NL43, in the mix with FZ41, Ratio 2:1, Mean, read-out: IC50 ZVD, in the mix).

On to `COc1cc(C=Cc2ccc3ccc(C(=O)O)c(O)c3n2)cc(O)c1O` [BA011FZ041, 8-hydroxy-2-[2-[(3,4-dihydroxy-5-methoxy-phenyl)ethenyl]]7-quinoline carboxylic acid], for which the IC50 (Table 6, Ratio 1:1 series with Nev, drug alone, Mean, read-out: IC50 FZ41, drug alone) was 1600 nM; the IC50 (Table 6, Ratio 1:2 series with Nev, drug alone, Mean, read-out: IC50 FZ4, drug alone) is 1500 nM; the IC50 (Table 6, Ratio 2:1 series with Nev, drug alone, Mean, read-out: IC50 FZ41, drug alone) is 1500 nM; the IC50 (Table 8, Ratio 1:1 series with ZVD, drug alone, Mean, read-out: IC50 FZ41, drug alone) was 1400 nM; the IC50 (Table 8, Ratio 1:2 series with ZVD, drug alone, Mean, read-out: IC50 FZ41, drug alone) was 1700 nM; the half-inhibitory concentration (IC50) (Table 8, Ratio 2:1 series with ZVD, drug alone, Mean, read-out: IC50 FZ41, drug alone) was 1700 nM. In addition, the IC50 is, setting by setting: (Table 10, Ratio 1:1 series with L-731,988, drug alone, Mean, read-out: IC50 FZ41, drug alone) 1300 nM; (Table 10, Ratio 1:2 series with L-731,988, drug alone, Mean, read-out: IC50 FZ41, drug alone) 1300 nM; (Table 10, Ratio 2:1 series with L-731,988, drug alone, Mean, read-out: IC50 FZ41, drug alone) 1300 nM; (in the mix with L-731,988, Ratio 1:1, Mean, read-out: IC50 FZ41, in the mix) 900 nM; (in the mix with L-731,988, Ratio 1:2, Mean, read-out: IC50 FZ41, in the mix) 800 nM; (in the mix with L-731,988, Ratio 2:1, Mean, read-out: IC50 FZ41, in the mix) 1100 nM. The IC50 runs as follows: (in the mix with Nev, Ratio 1:1, Mean, read-out: IC50 FZ41, in the mix) 1100 nM; (in the mix with Nev, Ratio 1:2, Mean, read-out: IC50 FZ4, in the mix) 900 nM; (in the mix with Nev, Ratio 2:1, Mean, read-out: IC50 FZ41, in the mix) 1200 nM; (in the mix with ZVD, Ratio 1:1, Mean, read-out: IC50 FZ41, in the mix) 800 nM; (in the mix with ZVD, Ratio 1:2, Mean, read-out: IC50 FZ41, in the mix) 700 nM; (in the mix with ZVD, Ratio 2:1, Mean, read-out: IC50 FZ41, in the mix) 1100 nM.

(Values after US20080280849A1, “Synergic Combinations Comprising a Quinoline Compound and Other Hiv Infection Therapeutic Agents” (priority 2005, published 2008).)
